The test system of assay [1] is U-87 (Uppsala 87) Glioma cell lines. Briefly: Sulforhodamine B assay, U-87 drug sensitive Glioma cells. It is filed as cell-based. Particulars: for U-87/WT SI: SI = CC50 of Vero cell line /IC50 of Cancer cell line after 72 h; for IC50: 72 h, SRB, Mean ± Standard Deviations in Table 4, read-out: U-87/WT IC50. The method, then:
(§1) In order to test the growth inhibition potential of the TMZ and Acridone derivatives on Glioma, the U-87 (Uppsala 87) Glioma cell lines and T-98 (Temozolomide resistant) Glioma cell lines were treated with Temozolomide (TMZ) and Acridone derivatives AC2, AC7, and AC26. The African Green Monkey Kidney Vero cell lines were used as control for the study. The Vero cell lines were obtained from the National Center for Cell Sciences (NCCS), Pune, while the U-87 and T-98 cell lines were carried in the lab of Dr. GJ Peters, Cancer Center Amsterdam (CCA), VU University Medical Center, Amsterdam, Netherlands. The Mycoplasma testing was done by using the Universal Mycoplasma Detection Kit (ATCC® 30-1012K™) every 6 months. The Vero cell lines have been used as control as they are normal kidney epithelial cells and are non-cancerous in nature. The Vero cell lines have been routinely used for testing cytotoxicity of small molecules by various researchers ([22], [23]). Also, in our previous study, Vero cell lines have been used for testing safety and efficacy of Acridone derivatives for Lung, Cervical, and Breast Cancer studies ([13]).
(§2) Cell viability was found using the Sulforhodamine B (SRB) assay to measure the cellular protein content which provides better sensitivity in comparison to MTT assay ([24]). Moreover, as this method is dependent on the property of the SRB dye, it acts by binding to proteins under slightly acidic conditions and can be exposed to basic conditions for its extraction. The resulting amount of bound dye is then utilized as a proxy for cell mass ([25]). This cell mass can then be extrapolated to measure cell growth.
(§3) Glioma cells were cultured in Gibco (RPMI 1640) complemented with 10% fetal calf serum (Gibco). The cultures were then treated with trypsin-EDTA in order to detach/separate the cells from their culture flasks. The quickly proliferating cells were harvested, counted and plated at suitable concentrations in 96-well microplates. These microplates were subsequently incubated for 24 h. After incubation, drug compounds were dissolved in the culture media and placed in 96 well plates in triplicates, which were again incubated at 37°C under 5% CO2 for 72 h. 72 h later, the plates were removed and the cells were treated with cold Trichloroacetic acid (TCA) to fix the cultures and. 0.4% of SRB dissolved in 1% acetic acid was then added to the culture in order to stain the cells. Next, the bound stain was dissolved in 150 μl of 10 mM unbuffered Tris base left on a gyrator shaker. Thereafter, absorbance of the solution was measured at 540 nm utilizing a microplate reader. Absorbance readings (triplicate values) recorded were used to calculate percentage growth inhibition due to the effect of drugs using the following equations.
(§4) % Cell growth = Absorbance sample/Absorbance of control or untreated × 100
(§5) % Growth inhibition = 100 - % cell growth
(§6) The IC50 was calculated based on the log graph sheet which was developed in-house at the CCA, VU University Medical Center.
(§7) Selectivity Index (SI) is a ratio that measures the window between cytotoxicity and anticancer activity of the drugs ([26]). […] Here, IC50 is the inhibition concentration for inhibiting 50% of cancer cells and CC50 is cytotoxic concentration causing death of 50% viable cells in the host.
On the technique in general: In SRB staining, fixed cells bind dye roughly in proportion to their protein.

In assay [2] the test system is T-98 (Temozolomide resistant) Glioma cell lines. Briefly: Sulforhodamine B assay, T-98 TMZ resistant Glioma cells. Type of assay: cell-based. Particulars: for IC50: Glioma cell; for T-98/TMZRES SI: SI = CC50 of Vero cell line /IC50 of Cancer cell line after 72 h. The method, then: as §1, §2, §3, §4, §5, §6, §7
The mark [3] stands for this setting: 72 h, SRB, Mean ± Standard Deviations in Table 4, read-out: T-98/TMZRES IC50.
[4] abbreviates: drug administered individually, drug resistant cells, read-out: Initial IC50.

Read-outs that look alike come from different tables or passages of the source.

With `O=C(NN=CC=Cc1ccccc1)c1cccc2c(=O)c3ccccc3[nH]c12` [AC2, 9-oxo-N'-(3-phenylallylidene)-9,10-dihydroacridine-4-carbohydrazide], the “U-87/WT SI” value in assay [1] turned out to be 36.73. In addition, the values for the IC50 in assay [1] (U87WT), in assay [2] (setting [3]) and in assay [2] (setting [4]) were 1530 ± 850 nM, 1530 ± 250 nM and 1530 nM, respectively. The “T-98/TMZRES SI” value in assay [2] was found to be 36.73.
Turning to `O=C(NN=Cc1ccccc1Cl)c1cccc2c(=O)c3ccccc3[nH]c12` [AC7, N'-(2-chlorobenzylidene)-9-oxo-9,10-dihydroacridine-4-carbohydrazide], the “U-87/WT SI” value in assay [1] is recorded as 8.49. In addition, the IC50 in assay [1] (U87WT) is 5670 ± 580 nM; in assay [2] (setting [3]), 1050 ± 180 nM; in assay [2] (setting [4]), 1050 nM. Besides, in assay [2], the “T-98/TMZRES SI” value came out at 45.87.
In the case of `CC(=NNC(=O)c1cccc2c(=O)c3ccccc3[nH]c12)c1ccccc1O` [AC26, N'(1-(2-hydroxyphenyl)ethylidene)-9-oxo-9,10-dihydroacridine-4-carbohydrazide], the IC50 in assay [1] (listed as Acridone 26) turned out to be 1000 nM; in assay [1] (U87WT) it was 900 ± 100 nM; in assay [2] (setting [3]) it was 760 ± 53 nM; in assay [2] (setting [4]), 760 nM. Moreover, the “U-87/WT SI” value in assay [1] is given as 73.42. Besides, the “T-98/TMZRES SI” value in assay [2] is given as 86.94.
